pIC50: −log10 of the molar value. Calls of active or inactive are those of the source.
Columns and labels:
[1] = target: T1, Dual specificity protein phosphatase 6 (Rattus norvegicus, UniProt Q64346); assay: inhibition of rat DUSP6 enzyme activity – biochemical, in vitro, primary screen (AID 425)
T1 sequence (Q64346 whole entry): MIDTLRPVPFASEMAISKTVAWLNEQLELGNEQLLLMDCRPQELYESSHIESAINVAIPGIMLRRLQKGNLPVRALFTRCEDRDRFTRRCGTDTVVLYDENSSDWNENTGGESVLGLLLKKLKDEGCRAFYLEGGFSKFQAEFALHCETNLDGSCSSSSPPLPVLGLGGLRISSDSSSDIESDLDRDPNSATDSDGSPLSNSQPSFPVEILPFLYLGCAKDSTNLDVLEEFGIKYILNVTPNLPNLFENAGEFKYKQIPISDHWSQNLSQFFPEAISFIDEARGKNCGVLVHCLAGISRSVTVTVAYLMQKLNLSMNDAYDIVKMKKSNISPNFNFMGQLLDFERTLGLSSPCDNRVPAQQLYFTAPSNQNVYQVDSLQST

[2] = target: Eukaryotic translation initiation factor 4E (Mus musculus, UniProt P63073); assay: blockers of eIF4G binding by eIF4E – biochemical, TR-FRET, dose response (AID 855); assay type: functional;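 also: potency for disrupting eIF4E binding to eIF4GI seen as loss of FRET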
[3] = target: T2, E3 ubiquitin-protein ligase XIAP (Homo sapiens, UniProt P98170); assay: Counter Screen using XIAP-Bir3 for Chemical Antagonists of Bir1/2 domains of IAP-family anti-apoptotic proteins. [Related pubchem assays (depositor defined):AID1018, AID1449, AID1514, AID1638, AID1749, AID1750, AID488957, AID488963]
[4] = target: Induced myeloid leukemia cell differentiation protein Mcl-1 (Homo sapiens, UniProt Q07820); assay type: functional
[5] = target: Glyceraldehyde-3-phosphate dehydrogenase (Homo sapiens, UniProt P04406)
[6] = target: T2, E3 ubiquitin-protein ligase XIAP; assay: small molecules displacing peptide from XIAP – biochemical, IAP family, fluorescence polarization (AID 1018); assay type: functional
Bcl-2-like protein 10 = target: T3, Bcl-2-like protein 10 (Homo sapiens, UniProt Q9HD36); assay: Bcl-B/TR3 peptide binding disruption – biochemical, fluorescence polarization, FITC-TR3 peptide, selectivity assay for Bfl-1 inhibitor project, primary screen (AID 748);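 also: fluorescence polarization from a fluorescein-labelled TR3 peptide binding purified Bcl-B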
T3 sequence (Q9HD36 whole entry): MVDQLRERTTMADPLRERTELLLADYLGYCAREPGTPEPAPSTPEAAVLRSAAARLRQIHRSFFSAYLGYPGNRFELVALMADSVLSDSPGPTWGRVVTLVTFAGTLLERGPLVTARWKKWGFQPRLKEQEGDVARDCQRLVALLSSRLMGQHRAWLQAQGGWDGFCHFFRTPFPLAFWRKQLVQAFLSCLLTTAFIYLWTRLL

Large T antigen = Large T antigen (Simian virus 40, UniProt P03070); assay type: functional, Betapolyomavirus macacae;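 also: Confirmatory-stage PubChem screen for compounds that inhibit SV40 T antigen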
[7] = target: T4, Tyrosine-protein phosphatase non-receptor type 7 (Homo sapiens, UniProt P35236); assay type: functional
T4 sequence (P35236 whole entry): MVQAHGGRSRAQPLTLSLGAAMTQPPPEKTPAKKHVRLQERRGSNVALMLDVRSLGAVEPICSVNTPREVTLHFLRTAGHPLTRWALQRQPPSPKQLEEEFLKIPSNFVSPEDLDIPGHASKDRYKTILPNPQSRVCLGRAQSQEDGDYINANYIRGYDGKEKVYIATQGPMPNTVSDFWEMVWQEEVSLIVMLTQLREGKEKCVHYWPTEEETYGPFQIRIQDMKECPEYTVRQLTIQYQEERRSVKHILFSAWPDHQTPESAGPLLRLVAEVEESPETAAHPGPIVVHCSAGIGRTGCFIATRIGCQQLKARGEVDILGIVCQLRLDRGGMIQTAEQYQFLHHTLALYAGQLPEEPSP

[8] = target: T1, Dual specificity protein phosphatase 6; assay type: functional
[9] = target: Heat shock 70 kDa protein 1A (Homo sapiens, UniProt P0DMV8); assay: inhibition of Hsp70 binding activity – biochemical, fluorescence polarization, SAR follow-up (AID 1072)
[10] = target: Heat shock cognate 71 kDa protein (Homo sapiens, UniProt P11142); assay: In Vitro Hsc70 Dose Response Fluorescence Polarization Assay. [Related pubchem assays: 1072 ]
[11] = target: T1, Dual specificity protein phosphatase 6
[12] = target: T5, Neuropeptides B/W receptor type 1 (Homo sapiens, UniProt P48145); assay: human NPBW1 receptor blockade, IC50 – cell-based, fluorescence, dose response, late-stage follow-up (AID 463251); assay type: functional
T5 sequence (P48145 whole entry): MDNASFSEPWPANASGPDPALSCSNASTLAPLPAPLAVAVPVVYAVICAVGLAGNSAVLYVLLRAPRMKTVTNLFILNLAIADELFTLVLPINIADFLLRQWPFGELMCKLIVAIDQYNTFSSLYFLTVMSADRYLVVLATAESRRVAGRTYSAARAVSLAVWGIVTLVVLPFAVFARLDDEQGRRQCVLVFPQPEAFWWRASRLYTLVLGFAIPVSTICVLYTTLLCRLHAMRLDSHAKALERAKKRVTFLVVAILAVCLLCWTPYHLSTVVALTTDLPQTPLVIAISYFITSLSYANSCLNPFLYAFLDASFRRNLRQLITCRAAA

[13] = target: Melanin-concentrating hormone receptor 1 (Homo sapiens, UniProt Q99705); assay: Late-stage fluorescence-based counterscreen for antagonists of the G-protein coupled receptor 7 (GPR7): cell-based dose response assay to identify antagonists of the melanin-concentrating hormone receptor 1 (MCHR1). [Related pubchem assays (depositor defined):AID1861, AID1880, AID1952, AID2148, AID2251, AID2257, AID485339]; assay type: functional;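 also: stimulated with 30 nM MCH peptide agonist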
[14] = target: Heat shock protein HSP 90-alpha (Homo sapiens, UniProt P07900); assay type: functional, organism-based
Beta-galactosidase [15] = target: T6, Beta-galactosidase (Escherichia coli, UniProt Q8VNN2); assay: Dose response counterscreen for EBI2 assay utilizing the enzyme, b-galactosidase.; assay type: functional
[16] = fluconazole-exposed Candida albicans growth modulators – fluorescence, retest, confirmation (AID 2467); assay type: functional, cell-based
[17] = target: T7, Serine/threonine-protein phosphatase (Candida dubliniensis (strain CD36 / CBS 7987 / NCPF 3949 / NRRLY-17841) (Yeast), UniProt B9W6M3); assay: blockers of CaCl2-induced CDRE-lacZ signaling – S. cerevisiae, luminescence, secondary, dose response (AID 2388); assay type: functional, cell-based;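 also: yeast reporter cells carrying a calcineurin-responsive lacZ construct stimulated with calcium chloride; luminescent beta-galactosidase reporter signal in whole cells rather than isolated phosphatase activity; potency for inhibition where a drop in reporter signal means calcineurin blockade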
T7 sequence (B9W6M3 whole entry): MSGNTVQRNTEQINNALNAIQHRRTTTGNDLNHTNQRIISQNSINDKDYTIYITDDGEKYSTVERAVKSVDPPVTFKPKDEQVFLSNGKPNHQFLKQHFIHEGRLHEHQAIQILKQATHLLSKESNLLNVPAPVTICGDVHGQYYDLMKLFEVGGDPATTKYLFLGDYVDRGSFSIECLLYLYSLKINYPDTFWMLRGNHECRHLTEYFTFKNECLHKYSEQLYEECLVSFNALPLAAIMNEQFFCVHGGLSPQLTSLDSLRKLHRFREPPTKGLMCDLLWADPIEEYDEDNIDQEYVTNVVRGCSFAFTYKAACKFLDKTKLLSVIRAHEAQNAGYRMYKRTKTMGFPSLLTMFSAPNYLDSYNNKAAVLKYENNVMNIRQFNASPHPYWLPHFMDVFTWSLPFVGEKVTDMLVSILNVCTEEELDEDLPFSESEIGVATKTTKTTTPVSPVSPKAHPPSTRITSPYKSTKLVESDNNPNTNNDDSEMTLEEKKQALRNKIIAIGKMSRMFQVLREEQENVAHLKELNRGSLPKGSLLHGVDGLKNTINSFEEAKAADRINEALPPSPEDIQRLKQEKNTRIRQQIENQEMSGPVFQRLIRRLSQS

Beta-galactosidase [18] = target: T6, Beta-galactosidase; assay type: functional
Vero = assay: viability of Vero cells under compound – cytotoxicity control for flavivirus capping enzyme inhibitors (AID 588742); assay type: functional; settings: Chlorocebus sabaeus
[19] = NIH-3T3 fibroblast cytotoxicity, dose response, cytotoxicity control, cell-based, fluorescence, Alamar Blue, secondary assay (AID 2327); assay type: functional;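 also: NIH-3T3 mouse fibroblasts cultured with fluconazole at 8 µg/mL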
INS1 = assay: INS-1E survival protection against cytokine death – cell-based, luminescence, retest, dose response (AID 449756); assay type: functional; settings: Rattus norvegicus;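 also: cell death triggered by IL-1 beta plus TNF-alpha plus IFN-gamma mixture; protective hits raise ATP signal compared with cytokine alone wells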
[20] = target: T8, Kappa-type opioid receptor (Homo sapiens, UniProt P41145); assay type: functional
[21] = mammalian cell viability loss – Alamar Blue, dry powder, cytotoxicity control for antifungal single agent project, dose response (AID 602188); assay type: functional, cell-based
[22] = target: ATP-dependent molecular chaperone HSP82 (Candida albicans (strain WO-1) (Yeast), UniProt C4YTQ8); assay: steroid-induced GRE reporter decrease in yeast – S. cerevisiae, luminescence, Hsp90 inhibitor project, dose response (AID 2400); assay type: functional, cell-based;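 also: beta-galactosidase luminescence from glucocorticoid response element reporter as proxy for Hsp90 function; inhibitor potency where signal loss means Hsp90 inhibition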
Nonstructural protein 1 = Nonstructural protein 1 (Influenza A virus, UniProt Q194T2); assay type: functional, Influenza A virus (A/California/07/2009(H1N1))
[23] = target: T8, Kappa-type opioid receptor; assay type: functional; remark: listed apart in the source
Salmon testes DNA = assay: acridine orange-DNA binding displacement – biochemical, fluorescence polarization, cherry-picked samples, set 2, artefact control for KSHV LANA DNA-binding inhibitor project, dose response (AID 504727); set-up: species or system Salmonidae
HeLa = assay: viability loss in HeLa cells – cell-based, 24 h, cherry-picked samples, cytotoxicity control, dose response (AID 504726); assay type: functional; settings: Homo sapiens;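 also: potency for cytotoxicity as loss of luminescence signal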
cells [24] = assay type: functional
cells [25] = assay type: functional, cell-based
cells [26] = assay type: functional, cell-based; remark: listed apart in the source
[27] = target: Transitional endoplasmic reticulum ATPase (Homo sapiens, UniProt P55072, C522A); assay: Luminescence counterscreen assay for p97 inhibitors: dose response biochemical high throughput screening assay to identify inhibitors of the C522A mutant p97 ATPase: synthesized compounds. [Related pubchem assays: 1481, 1517, 1551 ]
[28] = Luminescence Cell-Based Dose Retest to Confirm Inhibitors of Cancer Stem Cells. [Related pubchem assays (depositor defined):AID2717, AID2721]; assay type: functional; settings: Homo sapiens
[29] = target: T9, Ubiquitin-conjugating enzyme E2 N (Homo sapiens, UniProt P61088); assay type: functional;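 also: Dose-response confirmation in a TR-FRET assay detecting UBC13-driven polyubiquitin chain formation, inhibition measured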
T9 sequence (P61088 whole entry): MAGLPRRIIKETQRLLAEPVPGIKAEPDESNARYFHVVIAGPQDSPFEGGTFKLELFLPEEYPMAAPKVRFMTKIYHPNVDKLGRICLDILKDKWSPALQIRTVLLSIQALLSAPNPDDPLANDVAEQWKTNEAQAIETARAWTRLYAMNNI

[30] = target: Transitional endoplasmic reticulum ATPase (Homo sapiens, UniProt P55072); assay: Luminescence dose response biochemical high throughput screening assay for inhibitors of the p97 ATPase: synthesized compounds. [Related pubchem assays: 1481, 1517 ]
[31] = target: Neurotensin receptor type 1 (Homo sapiens, UniProt P30989); assay type: functional;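 also: Image-based confirmatory dose-response assay measuring agonist activity at NTR1; NTR1-expressing U2OS osteosarcoma cells imaged for beta-arrestin GFP spot formation; agonist potency where compounds increase beta-arrestin recruitment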
[32] = target: G2/mitotic-specific cyclin-B1 (Homo sapiens, UniProt P14635); assay: HeLa cell cycle G2/M accumulation – FACS, mechanism study for Wee1 degradation inhibitor project, late-stage follow-up, panel member Cyclin B Degradation (AID 2088)
Wee1-like protein kinase = Wee1-like protein kinase (Homo sapiens, UniProt P30291); assay: HeLa cell cycle G2/M accumulation – FACS, mechanism study for Wee1 degradation inhibitor project, late-stage follow-up, panel member Wee1 Degradation (AID 2088)
Neutrophil collagenase = Neutrophil collagenase (Homo sapiens, UniProt P22894); assay: potency against MMP13, MMP2, MMP3, MMP14 – biochemical, probe development, late stage results, selectivity assay for MMP13 inhibitor project, late-stage follow-up, panel member MMP-8 [IC50 Assay] (AID 2067)
Collagenase 3 = Collagenase 3 (Homo sapiens, UniProt P45452); assay: potency against MMP13, MMP2, MMP3, MMP14 – biochemical, probe development, late stage results, selectivity assay for MMP13 inhibitor project, late-stage follow-up, panel member MMP-13 [IC50 Assay] (AID 2067)

T6 sequence (Q8VNN2 whole entry): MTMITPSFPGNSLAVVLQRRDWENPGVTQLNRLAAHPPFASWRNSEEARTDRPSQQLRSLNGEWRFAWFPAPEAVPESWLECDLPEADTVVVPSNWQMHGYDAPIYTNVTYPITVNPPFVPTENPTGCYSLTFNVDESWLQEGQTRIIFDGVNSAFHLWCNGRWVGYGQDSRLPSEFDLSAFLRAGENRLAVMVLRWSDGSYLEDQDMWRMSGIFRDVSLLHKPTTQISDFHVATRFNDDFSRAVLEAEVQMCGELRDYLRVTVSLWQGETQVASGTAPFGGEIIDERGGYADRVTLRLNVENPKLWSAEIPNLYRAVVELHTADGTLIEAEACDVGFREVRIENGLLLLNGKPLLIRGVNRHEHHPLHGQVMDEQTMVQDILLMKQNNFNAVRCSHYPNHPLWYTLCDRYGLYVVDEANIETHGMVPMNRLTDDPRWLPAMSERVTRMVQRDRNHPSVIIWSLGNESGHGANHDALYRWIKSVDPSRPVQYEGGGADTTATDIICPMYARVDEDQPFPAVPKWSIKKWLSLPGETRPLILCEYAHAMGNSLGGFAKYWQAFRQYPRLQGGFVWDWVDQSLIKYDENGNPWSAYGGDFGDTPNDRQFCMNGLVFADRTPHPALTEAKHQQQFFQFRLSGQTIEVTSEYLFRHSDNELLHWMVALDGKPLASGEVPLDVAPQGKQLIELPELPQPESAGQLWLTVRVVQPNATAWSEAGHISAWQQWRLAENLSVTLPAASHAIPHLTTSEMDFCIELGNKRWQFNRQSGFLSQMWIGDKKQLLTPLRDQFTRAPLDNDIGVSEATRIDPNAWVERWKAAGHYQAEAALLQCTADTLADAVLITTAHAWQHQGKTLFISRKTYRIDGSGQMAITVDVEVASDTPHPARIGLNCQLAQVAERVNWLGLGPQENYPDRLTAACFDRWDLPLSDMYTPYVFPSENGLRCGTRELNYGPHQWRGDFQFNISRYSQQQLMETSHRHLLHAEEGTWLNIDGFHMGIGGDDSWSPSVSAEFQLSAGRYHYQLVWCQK
T8 sequence (P41145 whole entry): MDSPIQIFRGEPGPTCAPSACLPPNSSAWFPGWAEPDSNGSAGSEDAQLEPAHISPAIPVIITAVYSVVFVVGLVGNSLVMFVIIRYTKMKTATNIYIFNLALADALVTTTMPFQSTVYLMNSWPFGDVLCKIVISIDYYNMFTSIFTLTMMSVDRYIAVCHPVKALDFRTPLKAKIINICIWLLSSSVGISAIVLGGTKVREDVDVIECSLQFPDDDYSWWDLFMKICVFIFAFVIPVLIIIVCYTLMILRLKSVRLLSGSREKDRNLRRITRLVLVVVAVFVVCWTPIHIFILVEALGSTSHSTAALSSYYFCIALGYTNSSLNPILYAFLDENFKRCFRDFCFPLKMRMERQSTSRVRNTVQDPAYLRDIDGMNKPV
T2 sequence (P98170 whole entry): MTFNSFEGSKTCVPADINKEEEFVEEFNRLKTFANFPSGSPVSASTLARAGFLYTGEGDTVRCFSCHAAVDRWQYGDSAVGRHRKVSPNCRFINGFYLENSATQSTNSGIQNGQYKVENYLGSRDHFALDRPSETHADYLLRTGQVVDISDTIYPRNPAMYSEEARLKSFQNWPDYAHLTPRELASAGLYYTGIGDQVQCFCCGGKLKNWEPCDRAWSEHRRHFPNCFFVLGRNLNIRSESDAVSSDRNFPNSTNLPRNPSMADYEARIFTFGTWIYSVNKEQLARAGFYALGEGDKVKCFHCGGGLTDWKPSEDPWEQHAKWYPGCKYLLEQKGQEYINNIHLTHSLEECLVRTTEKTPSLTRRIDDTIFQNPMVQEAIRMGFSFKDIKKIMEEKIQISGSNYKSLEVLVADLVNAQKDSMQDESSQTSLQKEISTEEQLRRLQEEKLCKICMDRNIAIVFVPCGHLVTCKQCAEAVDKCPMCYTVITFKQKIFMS
Eukaryotic translation initiation factor 4E, sequence (P63073 whole entry): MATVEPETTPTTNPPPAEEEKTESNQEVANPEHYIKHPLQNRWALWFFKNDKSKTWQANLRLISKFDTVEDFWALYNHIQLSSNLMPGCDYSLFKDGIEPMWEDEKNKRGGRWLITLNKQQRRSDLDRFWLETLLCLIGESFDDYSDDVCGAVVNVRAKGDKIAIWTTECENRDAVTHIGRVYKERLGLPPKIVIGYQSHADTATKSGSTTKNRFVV
Transitional endoplasmic reticulum ATPase (Homo sapiens, UniProt P55072, C522A), sequence (P55072 2-806 C522A limits assumed): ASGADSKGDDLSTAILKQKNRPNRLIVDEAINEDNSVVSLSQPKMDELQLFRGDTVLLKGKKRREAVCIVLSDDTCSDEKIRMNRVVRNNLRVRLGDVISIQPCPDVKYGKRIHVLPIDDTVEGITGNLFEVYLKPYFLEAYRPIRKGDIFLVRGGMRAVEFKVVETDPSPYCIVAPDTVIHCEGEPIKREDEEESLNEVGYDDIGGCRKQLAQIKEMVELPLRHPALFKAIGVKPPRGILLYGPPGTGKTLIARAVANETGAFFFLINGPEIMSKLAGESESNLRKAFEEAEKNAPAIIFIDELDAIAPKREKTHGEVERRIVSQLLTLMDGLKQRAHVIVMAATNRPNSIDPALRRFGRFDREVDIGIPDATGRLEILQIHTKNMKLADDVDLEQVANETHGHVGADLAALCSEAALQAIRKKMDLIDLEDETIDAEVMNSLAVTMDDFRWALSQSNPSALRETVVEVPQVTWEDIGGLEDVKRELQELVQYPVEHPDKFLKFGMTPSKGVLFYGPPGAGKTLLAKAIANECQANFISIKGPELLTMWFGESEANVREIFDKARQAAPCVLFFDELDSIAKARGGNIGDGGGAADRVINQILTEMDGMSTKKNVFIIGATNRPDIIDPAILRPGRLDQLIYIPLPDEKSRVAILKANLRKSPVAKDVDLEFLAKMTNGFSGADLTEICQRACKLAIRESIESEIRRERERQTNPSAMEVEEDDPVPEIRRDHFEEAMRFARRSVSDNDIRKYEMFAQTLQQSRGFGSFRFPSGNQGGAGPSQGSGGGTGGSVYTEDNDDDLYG
Heat shock 70 kDa protein 1A, sequence (P0DMV8 whole entry): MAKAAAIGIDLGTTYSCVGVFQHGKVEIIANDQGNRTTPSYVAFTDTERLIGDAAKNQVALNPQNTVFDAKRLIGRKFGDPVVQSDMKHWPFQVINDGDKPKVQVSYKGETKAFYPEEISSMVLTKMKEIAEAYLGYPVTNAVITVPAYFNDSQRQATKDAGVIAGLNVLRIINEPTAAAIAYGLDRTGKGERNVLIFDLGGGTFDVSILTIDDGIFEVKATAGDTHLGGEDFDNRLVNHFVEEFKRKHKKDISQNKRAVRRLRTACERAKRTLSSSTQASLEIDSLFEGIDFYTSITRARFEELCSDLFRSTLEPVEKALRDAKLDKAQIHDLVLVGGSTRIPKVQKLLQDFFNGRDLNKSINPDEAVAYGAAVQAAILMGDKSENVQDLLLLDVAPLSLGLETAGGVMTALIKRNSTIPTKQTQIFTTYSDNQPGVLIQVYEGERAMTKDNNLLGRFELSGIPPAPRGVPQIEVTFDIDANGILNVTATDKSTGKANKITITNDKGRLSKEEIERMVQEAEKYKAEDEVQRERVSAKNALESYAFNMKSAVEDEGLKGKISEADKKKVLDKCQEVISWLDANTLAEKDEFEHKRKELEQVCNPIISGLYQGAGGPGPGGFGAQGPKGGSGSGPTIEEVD
Wee1-like protein kinase, sequence (P30291 whole entry): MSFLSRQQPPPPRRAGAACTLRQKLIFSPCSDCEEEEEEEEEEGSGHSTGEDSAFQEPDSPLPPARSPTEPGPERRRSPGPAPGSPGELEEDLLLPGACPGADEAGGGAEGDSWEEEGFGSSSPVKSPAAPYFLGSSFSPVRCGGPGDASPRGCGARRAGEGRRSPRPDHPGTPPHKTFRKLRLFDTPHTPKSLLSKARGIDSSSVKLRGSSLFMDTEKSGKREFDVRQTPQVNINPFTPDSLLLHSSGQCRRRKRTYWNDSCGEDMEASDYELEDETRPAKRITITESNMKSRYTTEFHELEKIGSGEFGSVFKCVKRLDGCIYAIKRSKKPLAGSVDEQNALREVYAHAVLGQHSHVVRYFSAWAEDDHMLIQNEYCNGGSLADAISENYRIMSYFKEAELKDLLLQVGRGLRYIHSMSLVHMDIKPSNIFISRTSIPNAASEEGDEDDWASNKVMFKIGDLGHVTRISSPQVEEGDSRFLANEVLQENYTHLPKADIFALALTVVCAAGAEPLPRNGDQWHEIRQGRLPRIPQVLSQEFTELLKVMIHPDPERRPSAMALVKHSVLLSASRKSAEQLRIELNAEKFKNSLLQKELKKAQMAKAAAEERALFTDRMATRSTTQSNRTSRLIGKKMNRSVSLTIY
Melanin-concentrating hormone receptor 1, sequence (Q99705 whole entry): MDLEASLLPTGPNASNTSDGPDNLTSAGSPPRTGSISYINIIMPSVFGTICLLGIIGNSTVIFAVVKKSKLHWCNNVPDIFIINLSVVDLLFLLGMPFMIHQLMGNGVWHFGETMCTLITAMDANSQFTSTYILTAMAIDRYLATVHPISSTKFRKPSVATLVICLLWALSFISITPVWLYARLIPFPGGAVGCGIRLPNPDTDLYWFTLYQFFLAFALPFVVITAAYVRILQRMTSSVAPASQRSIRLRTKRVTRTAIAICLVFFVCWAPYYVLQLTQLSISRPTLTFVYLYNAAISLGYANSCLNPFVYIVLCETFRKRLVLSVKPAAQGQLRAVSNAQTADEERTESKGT
G2/mitotic-specific cyclin-B1, sequence (P14635 whole entry): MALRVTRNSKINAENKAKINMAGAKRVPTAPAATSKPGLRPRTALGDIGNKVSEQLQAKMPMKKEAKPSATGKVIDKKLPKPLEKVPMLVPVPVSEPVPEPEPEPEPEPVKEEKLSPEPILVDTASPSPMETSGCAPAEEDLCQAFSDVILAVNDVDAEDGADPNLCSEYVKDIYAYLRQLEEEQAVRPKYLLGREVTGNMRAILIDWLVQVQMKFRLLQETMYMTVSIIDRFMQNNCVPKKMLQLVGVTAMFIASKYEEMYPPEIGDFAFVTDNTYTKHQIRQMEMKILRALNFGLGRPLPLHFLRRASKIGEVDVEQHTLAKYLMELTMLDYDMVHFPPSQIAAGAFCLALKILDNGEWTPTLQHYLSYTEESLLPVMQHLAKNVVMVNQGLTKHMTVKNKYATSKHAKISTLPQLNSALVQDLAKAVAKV

CCOC(=O)c1ccc2c(c1)C1C=CCC1C(C(=O)O)N2 (configuration not stated)
IC50 [1]: > 10 µM (not active) | IC50 [2]: 10.2 µM (active) | IC50 [3]: > 1.56 µM (inactive) | IC50 [4]: 0.997 µM (active) | IC50 [5]: 95.4 µM (active) | IC50 [6]: > 100 µM (not active) | IC50 (Bcl-2-like protein 10): 1.08 µM (active) | IC50 (Large T antigen): 14.2 µM (active) | IC50 [7]: 2.18 µM (active) | IC50 [8]: 9.87 µM (active) | IC50 [9]: 5.56 µM (active) | IC50 [10]: 27 µM (active) | IC50 [11]: 14.7 µM (active)

CCOc1ccc(Oc2cnn(-c3ccc(C)cc3)c(=O)c2Cl)cc1
IC50 [12]: 6.3 µM (active) | IC50 [13]: 18.2 µM (inactive)

C/C(=N\NC(=O)c1cc2ccccc2cc1O)c1ccccn1
AC50 [14]: 6.63 µM (active) | IC50 (Beta-galactosidase [15]): 136 µM (inactive) | EC50 [16]: 1.02 µM (active) | EC50 [17]: > 180 µM (inactive) | EC50 (Beta-galactosidase [18]): > 31.5 µM (inactive) | CC50 (Vero): 1.93 µM (active) | EC50 [19]: > 150 µM (inactive) | AC50 (INS1): 0.958 µM (active) | IC50 [20]: 2.14 µM (active) | AC50 [21]: 0.729 µM (active) | EC50 [22]: 4.08 µM (active) | IC50 (Nonstructural protein 1): 3.77 µM (active) | pIC50 [23]: < 4.49

CCOC(=O)c1c(C)nc2cc(C)ccn12
AC50 (Salmon testes DNA): 285 µM (active) | AC50 (HeLa): 69.7 µM (active) | IC50 (cells [24]): 28.4 µM (active) | EC50 (cells [25]): > 350 µM (not active) | EC50 (cells [26]): > 350 µM (not active)

N#Cc1ccc(Nc2nc(-c3ccc(O)cc3O)cs2)cc1C(F)(F)F
IC50 [27]: > 50 µM (not active) | AC50 [28]: 4.98 µM (active) | IC50 [29]: > 20 µM (inactive) | IC50 [30]: 13.5 µM (not active) | EC50 [31]: 9.59 µM (active)

Cc1cccc(OCC(=O)Nc2cc(C)nn2-c2nc(C)cc(=O)[nH]2)c1
EC50 [32]: > 49.7 µM (inactive) | EC50 (Wee1-like protein kinase): > 16.6 µM (active)

CCCCSc1nc(O)c2c(n1)CCC2
IC50 (Neutrophil collagenase): > 39.8 µM (active) | IC50 (Collagenase 3): > 39.8 µM (active)

From ChEMBL document CHEMBL1201862, “PubChem BioAssay data set” (2004)
